Converted amounts (≈) assume the structure as drawn. Where only a bound is given, the exact number is not on record here.

Consider 4 compounds from ChEMBL document CHEMBL3867480 (Bioorg Med Chem, 2016).

Stromelysin-1, sequence (P08254 whole entry): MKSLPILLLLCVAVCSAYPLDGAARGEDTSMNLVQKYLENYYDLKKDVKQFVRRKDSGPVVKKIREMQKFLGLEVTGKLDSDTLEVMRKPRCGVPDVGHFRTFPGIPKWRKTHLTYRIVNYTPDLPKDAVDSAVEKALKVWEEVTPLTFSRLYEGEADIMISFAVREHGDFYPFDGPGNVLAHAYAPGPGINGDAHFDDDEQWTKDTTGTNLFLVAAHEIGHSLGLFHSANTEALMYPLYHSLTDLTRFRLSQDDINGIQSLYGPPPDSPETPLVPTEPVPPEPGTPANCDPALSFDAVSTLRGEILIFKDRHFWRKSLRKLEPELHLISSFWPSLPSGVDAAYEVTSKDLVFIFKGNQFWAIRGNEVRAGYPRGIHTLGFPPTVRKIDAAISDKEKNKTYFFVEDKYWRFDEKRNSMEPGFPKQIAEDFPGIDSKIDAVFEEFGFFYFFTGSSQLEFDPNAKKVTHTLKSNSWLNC
Neutrophil collagenase, sequence (P22894 whole entry): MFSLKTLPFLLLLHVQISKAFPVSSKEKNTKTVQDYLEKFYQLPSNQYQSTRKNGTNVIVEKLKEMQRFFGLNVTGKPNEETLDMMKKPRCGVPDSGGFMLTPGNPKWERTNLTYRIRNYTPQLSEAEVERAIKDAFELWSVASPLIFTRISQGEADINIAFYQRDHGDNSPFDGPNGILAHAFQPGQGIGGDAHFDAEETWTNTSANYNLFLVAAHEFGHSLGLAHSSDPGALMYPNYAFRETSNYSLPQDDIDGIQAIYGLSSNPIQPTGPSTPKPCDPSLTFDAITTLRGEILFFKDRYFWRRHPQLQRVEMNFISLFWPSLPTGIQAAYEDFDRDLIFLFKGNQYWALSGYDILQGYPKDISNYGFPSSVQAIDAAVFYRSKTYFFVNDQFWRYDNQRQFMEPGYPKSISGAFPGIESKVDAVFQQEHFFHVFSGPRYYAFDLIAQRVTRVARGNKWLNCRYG
CYP3A4, sequence (P08684 whole entry): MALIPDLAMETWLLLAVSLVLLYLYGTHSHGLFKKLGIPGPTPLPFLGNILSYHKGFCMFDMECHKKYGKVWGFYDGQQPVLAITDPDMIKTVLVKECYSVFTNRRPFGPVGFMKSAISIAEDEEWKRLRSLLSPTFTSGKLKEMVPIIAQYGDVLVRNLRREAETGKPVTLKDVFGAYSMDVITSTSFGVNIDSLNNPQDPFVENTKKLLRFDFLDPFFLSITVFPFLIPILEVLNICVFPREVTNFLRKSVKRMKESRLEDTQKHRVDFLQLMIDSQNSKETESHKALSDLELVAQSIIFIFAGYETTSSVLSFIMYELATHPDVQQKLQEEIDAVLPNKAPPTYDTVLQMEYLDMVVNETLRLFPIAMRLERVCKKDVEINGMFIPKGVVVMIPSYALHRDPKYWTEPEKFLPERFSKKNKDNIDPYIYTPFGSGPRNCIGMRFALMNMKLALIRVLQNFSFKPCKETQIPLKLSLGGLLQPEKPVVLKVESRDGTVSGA

In one data set the target is 72 kDa type IV collagenase (Homo sapiens, UniProt P08253). In words: Inhibition of recombinant human […]-activated MMP2 using Cy3-PLGLK(Cy5Q)AR-NH2 as substrate measured after 40 mins by spectrofluorimetric method.
72 kDa type IV collagenase, sequence (P08253 whole entry): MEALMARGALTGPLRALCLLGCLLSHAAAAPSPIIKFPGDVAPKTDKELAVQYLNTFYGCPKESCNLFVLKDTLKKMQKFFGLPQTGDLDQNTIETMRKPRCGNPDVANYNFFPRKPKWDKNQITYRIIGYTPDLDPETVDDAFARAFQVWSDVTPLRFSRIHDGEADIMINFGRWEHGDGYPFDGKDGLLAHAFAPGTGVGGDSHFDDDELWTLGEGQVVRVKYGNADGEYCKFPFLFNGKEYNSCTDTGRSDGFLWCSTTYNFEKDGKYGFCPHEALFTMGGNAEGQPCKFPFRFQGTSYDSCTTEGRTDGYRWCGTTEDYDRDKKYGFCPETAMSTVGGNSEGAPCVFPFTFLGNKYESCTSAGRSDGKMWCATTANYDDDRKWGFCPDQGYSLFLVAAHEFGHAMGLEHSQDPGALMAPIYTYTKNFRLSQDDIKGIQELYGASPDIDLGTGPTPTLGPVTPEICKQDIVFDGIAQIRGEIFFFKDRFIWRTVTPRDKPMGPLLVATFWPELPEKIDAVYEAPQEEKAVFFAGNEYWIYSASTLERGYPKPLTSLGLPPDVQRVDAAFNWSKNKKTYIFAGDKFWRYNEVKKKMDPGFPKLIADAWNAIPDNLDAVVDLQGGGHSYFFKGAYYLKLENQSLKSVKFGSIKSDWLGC
Settings: not given
With `CC(C)[C@H](NS(=O)(=O)c1ccc(-c2cccc(CNC(=O)c3nc4ccccc4c(=O)[nH]3)c2)cc1)C(=O)O`, the 50% inhibitory concentration (IC50) (commonly the point on the concentration scale where inhibition reaches its midpoint) came to 8.3 nM.
On the same count and under the same terms, then `CC(C)C(CS(=O)(=O)c1ccc(-c2cccc(CNC(=O)c3nc4ccccc4c(=O)[nH]3)c2)cc1)N(O)C(N)=O` (centres undefined), with less than 10 nM.
The same measure, in the same setting: next, `CCOCCC1(Oc2ccc(-c3cccc(CNC(=O)c4nc5ccccc5c(=O)[nH]4)c3)cc2)C(=O)NC(=O)NC1=O`: 110 nM; `CC(C)C(CS(=O)(=O)c1ccc(-c2cccc(CNC(=O)c3nc4ccccc4c(=O)[nH]3)c2)cc1)N(O)C=O` (centres undefined): 3 nM.

In a further data set the target is Disintegrin and metalloproteinase domain-containing protein 17 (Homo sapiens, UniProt P78536). As to the kind of experiment: Inhibition of recombinant human TACE using Cy3-PLAQAV(Cy5Q-L-2,3-diaminopropionic acid)-RSSSR-NH2 as substrate measured after 40 mins by spectrofluorimetric method.
Disintegrin and metalloproteinase domain-containing protein 17, sequence (P78536 whole entry, the tested form may be a part): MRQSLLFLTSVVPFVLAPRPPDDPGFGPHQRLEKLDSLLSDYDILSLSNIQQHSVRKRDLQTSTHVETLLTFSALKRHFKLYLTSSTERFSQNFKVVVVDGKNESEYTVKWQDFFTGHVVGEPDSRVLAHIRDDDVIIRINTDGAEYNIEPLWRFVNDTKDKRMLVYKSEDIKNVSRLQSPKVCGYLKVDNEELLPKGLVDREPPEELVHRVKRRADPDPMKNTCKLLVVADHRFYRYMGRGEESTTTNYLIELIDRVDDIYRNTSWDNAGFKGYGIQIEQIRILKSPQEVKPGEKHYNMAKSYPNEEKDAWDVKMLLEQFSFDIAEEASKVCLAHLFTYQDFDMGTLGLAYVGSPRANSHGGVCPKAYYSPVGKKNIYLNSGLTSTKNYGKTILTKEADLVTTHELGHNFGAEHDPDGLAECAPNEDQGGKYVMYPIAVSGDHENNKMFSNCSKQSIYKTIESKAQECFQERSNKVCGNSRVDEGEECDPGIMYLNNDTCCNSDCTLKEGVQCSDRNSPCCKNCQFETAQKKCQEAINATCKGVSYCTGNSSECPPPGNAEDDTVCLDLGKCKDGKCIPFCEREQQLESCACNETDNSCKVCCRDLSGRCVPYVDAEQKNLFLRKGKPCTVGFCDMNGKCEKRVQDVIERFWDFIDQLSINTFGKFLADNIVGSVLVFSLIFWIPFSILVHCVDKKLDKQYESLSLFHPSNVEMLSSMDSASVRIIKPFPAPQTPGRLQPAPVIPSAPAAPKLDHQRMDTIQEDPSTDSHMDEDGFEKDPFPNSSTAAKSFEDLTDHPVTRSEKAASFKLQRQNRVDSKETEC
Settings: not given
`CC(C)[C@H](NS(=O)(=O)c1ccc(-c2cccc(CNC(=O)c3nc4ccccc4c(=O)[nH]3)c2)cc1)C(=O)O`: the IC50 was greater than 10000 nM.
The same measure, in the same setting: then `CCOCCC1(Oc2ccc(-c3cccc(CNC(=O)c4nc5ccccc5c(=O)[nH]4)c3)cc2)C(=O)NC(=O)NC1=O`, with greater than 10000 nM; and `CC(C)C(CS(=O)(=O)c1ccc(-c2cccc(CNC(=O)c3nc4ccccc4c(=O)[nH]3)c2)cc1)N(O)C=O` (centres undefined), with greater than 10000 nM.

Another data set has as its target CYP3A4 (Homo sapiens, UniProt P08684). As to the kind of experiment: Inhibition of CYP3A4 (unknown origin) at 10 uM. In kind it is ADME.
Settings: not given
Take `CCOCCC1(Oc2ccc(-c3cccc(CNC(=O)c4nc5ccccc5c(=O)[nH]4)c3)cc2)C(=O)NC(=O)NC1=O`: the inhibition (commonly the percentage by which the read-out fell short of the control) at 10 µM turned out to be 22%.

The target in the next data set is Stromelysin-2 (Homo sapiens, UniProt P09238). In words: Inhibition of recombinant human […]-activated MMP10 using Cy3-PLGLK(Cy5Q)AR-NH2 as substrate measured after 40 mins by spectrofluorimetric method.
Stromelysin-2, sequence (P09238 whole entry): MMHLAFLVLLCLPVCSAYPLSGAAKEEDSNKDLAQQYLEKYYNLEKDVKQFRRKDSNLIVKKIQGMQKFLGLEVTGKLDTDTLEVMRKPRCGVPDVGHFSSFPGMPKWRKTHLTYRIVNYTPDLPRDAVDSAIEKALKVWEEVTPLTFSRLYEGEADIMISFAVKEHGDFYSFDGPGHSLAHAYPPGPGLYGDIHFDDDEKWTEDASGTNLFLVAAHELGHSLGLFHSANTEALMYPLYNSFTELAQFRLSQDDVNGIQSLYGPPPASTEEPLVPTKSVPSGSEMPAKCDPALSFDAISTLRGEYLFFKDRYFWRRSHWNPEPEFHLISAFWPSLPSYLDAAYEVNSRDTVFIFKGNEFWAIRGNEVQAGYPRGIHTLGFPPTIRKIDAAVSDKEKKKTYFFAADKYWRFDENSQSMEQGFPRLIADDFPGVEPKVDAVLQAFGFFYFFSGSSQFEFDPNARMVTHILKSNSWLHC
Settings: not given
For `CC(C)[C@H](NS(=O)(=O)c1ccc(-c2cccc(CNC(=O)c3nc4ccccc4c(=O)[nH]3)c2)cc1)C(=O)O`, the half-inhibitory concentration (IC50) stood at 2.4 nM.
Still for that read-out and setting: then `CC(C)C(CS(=O)(=O)c1ccc(-c2cccc(CNC(=O)c3nc4ccccc4c(=O)[nH]3)c2)cc1)N(O)C(N)=O` (centres undefined), with less than 10 nM; and `CCOCCC1(Oc2ccc(-c3cccc(CNC(=O)c4nc5ccccc5c(=O)[nH]4)c3)cc2)C(=O)NC(=O)NC1=O`, with 930 nM.
Still for that read-out and setting: then `CC(C)C(CS(=O)(=O)c1ccc(-c2cccc(CNC(=O)c3nc4ccccc4c(=O)[nH]3)c2)cc1)N(O)C=O` (centres undefined), with 0.35 nM.

Another data set deals with T1, Matrilysin (Homo sapiens, UniProt P09237).
T1 sequence (P09237 whole entry): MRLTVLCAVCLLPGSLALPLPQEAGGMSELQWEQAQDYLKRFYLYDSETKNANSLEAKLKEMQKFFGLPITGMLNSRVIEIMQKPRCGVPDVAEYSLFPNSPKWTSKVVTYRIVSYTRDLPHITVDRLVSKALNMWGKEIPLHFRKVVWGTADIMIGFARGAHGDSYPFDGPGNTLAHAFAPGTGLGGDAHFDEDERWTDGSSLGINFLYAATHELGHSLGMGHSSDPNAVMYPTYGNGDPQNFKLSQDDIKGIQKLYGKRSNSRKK
In words: Inhibition of recombinant human […]-activated MMP7 using Cy3-PLGLK(Cy5Q)AR-NH2 as substrate measured after 40 mins by spectrofluorimetric method.
Settings: not given
Take `CC(C)[C@H](NS(=O)(=O)c1ccc(-c2cccc(CNC(=O)c3nc4ccccc4c(=O)[nH]3)c2)cc1)C(=O)O`: the IC50 was 1000 nM.
On the same count and under the same terms, then `CCOCCC1(Oc2ccc(-c3cccc(CNC(=O)c4nc5ccccc5c(=O)[nH]4)c3)cc2)C(=O)NC(=O)NC1=O`, with greater than 10000 nM; and `CC(C)C(CS(=O)(=O)c1ccc(-c2cccc(CNC(=O)c3nc4ccccc4c(=O)[nH]3)c2)cc1)N(O)C=O` (centres undefined), with 30 nM.

Test system in the next data set: not listed separately
In words: Solubility of the compound at pH 6.8. In kind it is physicochemical. The conditions noted are these: buffer.
As for `CCOCCC1(Oc2ccc(-c3cccc(CNC(=O)c4nc5ccccc5c(=O)[nH]4)c3)cc2)C(=O)NC(=O)NC1=O`, the concentration in solution (solubility) came to 9.1 µg/mL (≈ 16 µM).

Test system in a further data set: not listed separately
In words: Volume of distribution in rat at 0.1 mg/kg, iv or 1 mg/kg, po. The conditions noted are these: in vivo. Type of data set: ADME, organism-based.
For `CCOCCC1(Oc2ccc(-c3cccc(CNC(=O)c4nc5ccccc5c(=O)[nH]4)c3)cc2)C(=O)NC(=O)NC1=O`, the Vd was 0.054 L/kg.

Test system in another data set: not listed separately
In words: Permeability of the compound at pH 7.4 by PAMPA assay. As to conditions: read-out: permeability. In kind it is ADME. A general note: The PAMPA barrier holds no transporters, so it reflects passive diffusion.
Turning to `CCOCCC1(Oc2ccc(-c3cccc(CNC(=O)c4nc5ccccc5c(=O)[nH]4)c3)cc2)C(=O)NC(=O)NC1=O`, the Papp is 9.5 ×10⁻⁶ cm/s.

The target in another data set is Collagenase 3 (Homo sapiens, UniProt P45452).
Settings: not given
On to `CC(C)[C@H](NS(=O)(=O)c1ccc(-c2cccc(CNC(=O)c3nc4ccccc4c(=O)[nH]3)c2)cc1)C(=O)O`, for which 0.17 nM corresponded to half-maximal inhibition (IC50).
Still for that read-out and setting: then `CC(C)C(CS(=O)(=O)c1ccc(-c2cccc(CNC(=O)c3nc4ccccc4c(=O)[nH]3)c2)cc1)N(O)C(N)=O` (centres undefined), with 0.26 nM; and `CCOCCC1(Oc2ccc(-c3cccc(CNC(=O)c4nc5ccccc5c(=O)[nH]4)c3)cc2)C(=O)NC(=O)NC1=O`, with 0.23 nM.
The same measure, in the same setting: then `CC(C)C(CS(=O)(=O)c1ccc(-c2cccc(CNC(=O)c3nc4ccccc4c(=O)[nH]3)c2)cc1)N(O)C=O` (centres undefined), with 0.051 nM.

A further data set has as its target Stromelysin-1 (Homo sapiens, UniProt P08254). In words: Inhibition of recombinant human […]-activated MMP3 using Cy3-PLGLK(Cy5Q)AR-NH2 as substrate measured after 40 mins by spectrofluorimetric method.
Settings: not given
Take `CC(C)[C@H](NS(=O)(=O)c1ccc(-c2cccc(CNC(=O)c3nc4ccccc4c(=O)[nH]3)c2)cc1)C(=O)O`: the IC50 worked out at 30 nM.
For the compound `CCOCCC1(Oc2ccc(-c3cccc(CNC(=O)c4nc5ccccc5c(=O)[nH]4)c3)cc2)C(=O)NC(=O)NC1=O`, the half-maximal inhibitory concentration (IC50) came to 3300 nM.
Still for that read-out and setting: then `CC(C)C(CS(=O)(=O)c1ccc(-c2cccc(CNC(=O)c3nc4ccccc4c(=O)[nH]3)c2)cc1)N(O)C=O` (centres undefined), with 2.5 nM.

The next data set addresses Neutrophil collagenase (Homo sapiens, UniProt P22894). In words: Inhibition of recombinant human […]-activated MMP8 using Cy3-PLGLK(Cy5Q)AR-NH2 as substrate measured after 40 mins by spectrofluorimetric method.
Settings: not given
As for `CC(C)[C@H](NS(=O)(=O)c1ccc(-c2cccc(CNC(=O)c3nc4ccccc4c(=O)[nH]3)c2)cc1)C(=O)O`, the 50% inhibitory concentration (IC50) was determined as 8.9 nM.
Same read-out and setting: next, `CC(C)C(CS(=O)(=O)c1ccc(-c2cccc(CNC(=O)c3nc4ccccc4c(=O)[nH]3)c2)cc1)N(O)C(N)=O` (centres undefined): 19 nM; `CCOCCC1(Oc2ccc(-c3cccc(CNC(=O)c4nc5ccccc5c(=O)[nH]4)c3)cc2)C(=O)NC(=O)NC1=O`: 56 nM.
Still for that read-out and setting: next, `CC(C)C(CS(=O)(=O)c1ccc(-c2cccc(CNC(=O)c3nc4ccccc4c(=O)[nH]3)c2)cc1)N(O)C=O` (centres undefined): 1.3 nM.

Another data set deals with Matrix metalloproteinase-14 (Homo sapiens, UniProt P50281). In words: Inhibition of recombinant human GST-tagged MMP14 using Cy3-PLGLK(Cy5Q)AR-NH2 as substrate measured after 40 mins by spectrofluorimetric method.
Settings: not given
On to `CC(C)[C@H](NS(=O)(=O)c1ccc(-c2cccc(CNC(=O)c3nc4ccccc4c(=O)[nH]3)c2)cc1)C(=O)O`, for which the IC50 stood at 140 nM.
The same measure, in the same setting: then `CCOCCC1(Oc2ccc(-c3cccc(CNC(=O)c4nc5ccccc5c(=O)[nH]4)c3)cc2)C(=O)NC(=O)NC1=O`, with 3700 nM.
The same measure, in the same setting: next, `CC(C)C(CS(=O)(=O)c1ccc(-c2cccc(CNC(=O)c3nc4ccccc4c(=O)[nH]3)c2)cc1)N(O)C=O` (centres undefined): 5.4 nM.

For another data set, the target named is Matrix metalloproteinase-9 (Homo sapiens, UniProt P14780). As to the kind of experiment: Inhibition of recombinant human […]-activated MMP9 using Cy3-PLGLK(Cy5Q)AR-NH2 as substrate measured after 40 mins by spectrofluorimetric method.
Matrix metalloproteinase-9, sequence (P14780 whole entry): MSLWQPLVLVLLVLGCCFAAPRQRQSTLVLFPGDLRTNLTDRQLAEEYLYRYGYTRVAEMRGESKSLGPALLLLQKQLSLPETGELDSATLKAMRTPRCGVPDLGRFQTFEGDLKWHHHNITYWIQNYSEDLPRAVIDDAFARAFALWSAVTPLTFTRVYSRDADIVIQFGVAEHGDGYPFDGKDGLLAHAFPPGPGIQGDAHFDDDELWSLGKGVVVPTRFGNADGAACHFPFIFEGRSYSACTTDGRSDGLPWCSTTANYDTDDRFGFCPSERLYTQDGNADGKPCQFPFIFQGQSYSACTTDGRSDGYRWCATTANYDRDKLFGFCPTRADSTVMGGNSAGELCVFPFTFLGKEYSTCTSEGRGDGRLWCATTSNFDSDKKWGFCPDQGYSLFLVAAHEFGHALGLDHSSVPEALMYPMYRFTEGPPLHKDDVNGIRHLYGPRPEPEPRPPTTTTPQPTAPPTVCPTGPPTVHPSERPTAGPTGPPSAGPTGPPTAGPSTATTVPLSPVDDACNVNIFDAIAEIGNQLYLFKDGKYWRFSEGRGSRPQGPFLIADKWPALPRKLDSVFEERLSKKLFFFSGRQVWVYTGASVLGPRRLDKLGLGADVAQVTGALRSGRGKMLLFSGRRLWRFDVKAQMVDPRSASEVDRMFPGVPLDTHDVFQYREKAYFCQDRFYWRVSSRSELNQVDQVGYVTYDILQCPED
Settings: not given
Consider `CC(C)[C@H](NS(=O)(=O)c1ccc(-c2cccc(CNC(=O)c3nc4ccccc4c(=O)[nH]3)c2)cc1)C(=O)O`, for which the IC50 amounted to 36 nM.
On the same count and under the same terms, next, `CCOCCC1(Oc2ccc(-c3cccc(CNC(=O)c4nc5ccccc5c(=O)[nH]4)c3)cc2)C(=O)NC(=O)NC1=O`: 1600 nM; `CC(C)C(CS(=O)(=O)c1ccc(-c2cccc(CNC(=O)c3nc4ccccc4c(=O)[nH]3)c2)cc1)N(O)C=O` (centres undefined): 5.3 nM.

Test system in another data set: not listed separately
In words: Oral bioavailability in rat at 1 mg/kg. Type of data set: ADME, organism-based. The conditions noted are these: in vivo.
For the compound `CCOCCC1(Oc2ccc(-c3cccc(CNC(=O)c4nc5ccccc5c(=O)[nH]4)c3)cc2)C(=O)NC(=O)NC1=O`, the bioavailability – broadly, dose-corrected exposure relative to a reference, in per cent – amounted to 32%.

Another data set concerns the target T2, Interstitial collagenase (Homo sapiens, UniProt P03956).
T2 sequence (P03956 whole entry): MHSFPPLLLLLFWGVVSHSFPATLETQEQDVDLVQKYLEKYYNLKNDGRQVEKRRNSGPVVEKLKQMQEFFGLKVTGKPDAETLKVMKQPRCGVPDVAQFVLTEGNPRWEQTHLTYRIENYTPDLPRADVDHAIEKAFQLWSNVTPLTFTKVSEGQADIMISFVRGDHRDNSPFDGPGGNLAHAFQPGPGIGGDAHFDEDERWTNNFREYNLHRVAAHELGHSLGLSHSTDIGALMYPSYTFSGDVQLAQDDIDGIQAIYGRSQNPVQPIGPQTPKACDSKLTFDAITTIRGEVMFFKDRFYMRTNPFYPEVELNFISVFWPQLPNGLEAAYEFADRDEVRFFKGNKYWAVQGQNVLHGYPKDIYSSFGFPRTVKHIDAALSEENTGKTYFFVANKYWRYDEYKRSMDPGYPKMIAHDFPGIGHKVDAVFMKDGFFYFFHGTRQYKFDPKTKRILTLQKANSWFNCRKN
As to the kind of experiment: Inhibition of recombinant human […]-activated MMP1 using Cy3-PLGLK(Cy5Q)AR-NH2 as substrate measured after 40 mins by spectrofluorimetric method.
Settings: not given
Take `CC(C)[C@H](NS(=O)(=O)c1ccc(-c2cccc(CNC(=O)c3nc4ccccc4c(=O)[nH]3)c2)cc1)C(=O)O`: the half-maximal inhibitory concentration (IC50) is 3400 nM.
Still for that read-out and setting: then `CCOCCC1(Oc2ccc(-c3cccc(CNC(=O)c4nc5ccccc5c(=O)[nH]4)c3)cc2)C(=O)NC(=O)NC1=O`, with greater than 10000 nM.
Same read-out and setting: next, `CC(C)C(CS(=O)(=O)c1ccc(-c2cccc(CNC(=O)c3nc4ccccc4c(=O)[nH]3)c2)cc1)N(O)C=O` (centres undefined): 18 nM.

Test system in the next data set: not listed separately
In words: Clearance in human liver microsomes. Type of data set: ADME. The conditions noted are these: read-out: CLH. A general note: Microsomes from liver hold many membrane-bound enzymes, among them those of drug oxidation.
As to `CCOCCC1(Oc2ccc(-c3cccc(CNC(=O)c4nc5ccccc5c(=O)[nH]4)c3)cc2)C(=O)NC(=O)NC1=O`, the microsomal CLint came to 12 µL/min/mg.

The target of another data set is Macrophage metalloelastase (Homo sapiens, UniProt P39900). As to the kind of experiment: Inhibition of recombinant human […]-activated MMP12 using Cy3-PLGLK(Cy5Q)AR-NH2 as substrate measured after 40 mins by spectrofluorimetric method.
Macrophage metalloelastase, sequence (P39900 whole entry): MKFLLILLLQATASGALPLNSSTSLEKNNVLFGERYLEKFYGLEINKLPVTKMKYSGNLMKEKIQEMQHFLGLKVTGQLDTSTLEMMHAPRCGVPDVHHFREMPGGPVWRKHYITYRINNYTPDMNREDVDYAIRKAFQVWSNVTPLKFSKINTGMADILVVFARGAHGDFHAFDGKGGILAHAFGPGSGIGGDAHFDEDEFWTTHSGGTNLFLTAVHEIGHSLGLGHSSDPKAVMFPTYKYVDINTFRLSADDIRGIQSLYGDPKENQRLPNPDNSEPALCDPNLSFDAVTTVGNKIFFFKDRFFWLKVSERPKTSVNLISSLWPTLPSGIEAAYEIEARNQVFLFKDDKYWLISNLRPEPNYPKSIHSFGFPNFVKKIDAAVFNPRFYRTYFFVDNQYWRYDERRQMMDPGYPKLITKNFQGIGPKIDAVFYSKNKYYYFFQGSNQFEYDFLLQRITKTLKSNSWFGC
Settings: not given
In the case of `CC(C)[C@H](NS(=O)(=O)c1ccc(-c2cccc(CNC(=O)c3nc4ccccc4c(=O)[nH]3)c2)cc1)C(=O)O`, the IC50 turned out to be 16 nM.
The same measure, in the same setting: next, `CCOCCC1(Oc2ccc(-c3cccc(CNC(=O)c4nc5ccccc5c(=O)[nH]4)c3)cc2)C(=O)NC(=O)NC1=O`: 540 nM; `CC(C)C(CS(=O)(=O)c1ccc(-c2cccc(CNC(=O)c3nc4ccccc4c(=O)[nH]3)c2)cc1)N(O)C=O` (centres undefined): 8.5 nM.

Test system in the next data set: not listed separately
As to the kind of experiment: Clearance in rat at 0.1 mg/kg, iv or 1 mg/kg, po. In kind it is ADME, organism-based. As to conditions: in vivo.
In the case of `CCOCCC1(Oc2ccc(-c3cccc(CNC(=O)c4nc5ccccc5c(=O)[nH]4)c3)cc2)C(=O)NC(=O)NC1=O`, the clearance is 0.35 mL/min/kg.
